The record followed here is patent publication US6566403B1 (priority 1997, dated 2003).

Molecules are shown by their SMILES. Like-named read-outs stand apart in the source and are kept apart here.

Assay [1] has as its system Plasmopara viticola. As to the kind of experiment: Grape Downy Mildew (GDM). Format: in vivo. The note with it: grape plants, treated before inoculation, scored after 7-8 days. As for the experimental part: (§1) Cultures of Plasmopara viticola were maintained on grape seedlings derived from tissue culture. Leaves with sporulating mildew were rinsed in water to obtain the desired concentration of spores. A DeVilbiss atomizer was used to apply a suspension of spores to fungicide-treated lower leaves of the grape plants. The plants were kept in a humidity cabinet at 100% relative humidity for 24 hours and then placed in a controlled temperature chamber at 25° C. for 7-8 days before scoring. Disease evaluations were recorded as percent disease control.

Assay [2] has as its system Plasmopara viticola. The assay can be described thus: Grape Downy Mildew-Curative (GDC). Format: in vivo. To be noted: compound applied two days after inoculation. As to the method: as §1
The curative properties of the test compounds were evaluated using the same procedure as that set forth above in the section entitled “GRAPE DOWNY MILDEW”, except that the test compound was applied to the plants two days after inoculation with the pathogen.

Assay [3] has as its system Phytophthora infestans. It counts as in vivo. The note with it: tomato seedlings, treated before inoculation, 6 days after inoculation.
In a further assay the test system is Pythium ultimum. As to the kind of experiment: Fungitoxicity assay against Pythium ultimum (mycelial dry weight, liquid broth). To be noted: for Relative Effectiveness against Pythium ultimum: EC50 of racemic mixture divided by EC50 of the enantiomer, growth 48 hours at 25° C. It counts as cell-based. As to the method: (§2) A series of dilutions of each test compound was prepared in dimethyl sulfoxide, and 0.1 ml of each dilution was added to 19.9 ml of a liquid asparagine-sucrose broth (Erwin, D. C. and Katznelson, K., 1971, Can. J. Microbiol. 7, 15) in 9 cm diameter petri dishes to give the desired concentrations of test compound in the medium. Each plate was inoculated with a mycelial plug, 7 mm in diameter, taken from the growing edge of a culture of Pythium ultimum grown on potato dextrose agar. Two replicate plates were used for each treatment. The increase in mycelial dry weight was determined after growth for 48 hours at 25° C. with shaking on a gyrotary shaker at 60 rpm. Pythium EC50 values were calculated from dose response curves. As used herein, the terminology “EC50” means the concentration of test compound required to inhibit growth by 50% as compared to a control lacking the test compound.
(§3) In order to compare the activity of individual isomers with that of the corresponding racemic mixture, the relative effectiveness of each compound was calculated. As used herein, relative effectiveness means the EC50 value for a racemic mixture of the particular compound divided by the EC50 value for one enantiomer. The relative effectiveness of the racemic mixture itself is 1.0.

The test system of a further assay is Phytophthora capsici. As to the kind of experiment: Fungitoxicity assay against Phytophthora capsici (mycelial dry weight, liquid broth). It counts as cell-based. To be noted: EC50 of racemic mixture divided by EC50 of the enantiomer; growth 96 h. As for the experimental part:
as §2
The procedure described above for Pythium ultimum was used except that the mycelial plugs used for inoculation were taken from the growing edge of cultures of Phytophthora capsici grown on V-8 juice agar, pH 7.0, containing 200 ml V-8 juice, 4 g CaCO3, and 20 g agar per liter, and the increase in mycelial dry weight was determined after growth for 96 h.
as §3

Assay [4] has as its system Botrytis cinerea. As to the kind of experiment: Gray Mold on Tomato-Curative (BOC). Format: in vivo. The note with it: tomato plants, compound applied 2 days after inoculation. As for the experimental part: Botrytis cinerea cultures were maintained on potato dextrose agar. A dextrose solution was used to wash spores from sporulating cultures. A DeVilbiss atomizer was used to apply the resulting spore suspension to tomato plants. The plants were placed in a humidity cabinet at 100% relative humidity, and the test compound was applied to the plants after 2 days. The plants were returned to the humidity cabinet for a further 3-5 days before scoring. Disease evaluations were recorded as percent disease control.

Assay [5] concerns Botrytis cinerea. The assay can be described thus: Fungitoxicity assay against Botrytis cinerea (colony diameter on agar). It counts as cell-based. To be noted: EC50 of racemic mixture divided by EC50 of the enantiomer; 48 hours at 25° C. As to the method: A series of dilutions of each test compound was prepared in dimethyl sulfoxide and 125 microliters […] of each dilution was added to 25 ml of molten potato dextrose agar to give the desired concentrations of test compound. The mixtures were poured immediately into 9 cm diameter petri dishes. Each plate was inoculated with a 7 mm diameter mycelial plug taken from the growing edge of a 5 day old culture of B. cinerea grown on potato dextrose agar.
as §3

The subject of assay [6] is Phytophthora infestans. It counts as in vivo. The note with it: tomato, compound applied two days after inoculation.

As to `CCC(C)(NC(=O)c1cc(Cl)c(C)c(Cl)c1)C(=O)CCl` (racemic) [Compound 1, racemate], the “GDM percent disease control” value in the assay with Plasmopara viticola [1] (19 ppm) was found to be 99%; with Plasmopara viticola [1] (75 ppm) it was 100%; in the assay on Plasmopara viticola [1] (300 ppm), 100%. For the same compound, the entries for the “GDC percent disease control” value with Plasmopara viticola [2] (19 ppm), with Plasmopara viticola [2] (75 ppm) and in the assay on Plasmopara viticola [2] (300 ppm) were 50%, 50% and 90%, respectively. For the same compound, the “TLB percent disease control” value in the assay on Phytophthora infestans [3] (19 ppm) is reported as 85%; with Phytophthora infestans [3] (75 ppm) it was 100%; with Phytophthora infestans [3] (300 ppm), 95%. Further, in the assay on Pythium ultimum, the “Relative Effectiveness against Pythium ultimum” value is given as 1.00. Further, the “Relative Effectiveness against Phytophthora capsici” value in the assay with Phytophthora capsici was 1.00. Moreover, the entries for the “BOC percent disease control” value with Botrytis cinerea [4] (19 ppm), in the assay with Botrytis cinerea [4] (75 ppm) and with Botrytis cinerea [4] (300 ppm) were 50%, 75% and 90%, respectively. Further, in the assay with Botrytis cinerea [5], the “Relative Effectiveness against Botrytis cinerea” value was determined as 1.00. The “TLC percent disease control” value with Phytophthora infestans [6] (19 ppm) was 80%; with Phytophthora infestans [6] (75 ppm) it was 90%; in the assay with Phytophthora infestans [6] (300 ppm), 95%.

Regarding `CCC(C)(NC(=O)c1cc(Cl)cc(Cl)c1)C(=O)CCl` (racemic) [Compound 2, racemate], the “Relative Effectiveness against Pythium ultimum” value with Pythium ultimum was 1.00. Further, in the assay with Botrytis cinerea [5], the “Relative Effectiveness against Botrytis cinerea” value was determined as 1.00.

As to `CC[C@@](C)(NC(=O)c1cc(Cl)c(C)c(Cl)c1)C(=O)CCl` [Compound 1, R enantiomer, (R)-N-(3-chloro-1-ethyl-1-methyl-2-oxopropyl)-3,5-dichloro-4-methylbenzamide], the “GDM percent disease control” value in the assay with Plasmopara viticola [1] (19 ppm), in the assay with Plasmopara viticola [1] (75 ppm) and with Plasmopara viticola [1] (300 ppm) was 0% throughout. Besides, the “GDC percent disease control” value with Plasmopara viticola [2] (19 ppm), in the assay on Plasmopara viticola [2] (75 ppm) and with Plasmopara viticola [2] (300 ppm) was 0% in each case. Also, the entries for the “TLB percent disease control” value with Phytophthora infestans [3] (19 ppm), with Phytophthora infestans [3] (75 ppm) and with Phytophthora infestans [3] (300 ppm) were 25%, 50% and 75%, respectively. In addition, the “Relative Effectiveness against Pythium ultimum” value in the assay with Pythium ultimum is recorded as 0.037. Besides, in the assay with Phytophthora capsici, the “Relative Effectiveness against Phytophthora capsici” value turned out to be 0.0072. The “BOC percent disease control” value with Botrytis cinerea [4] (19 ppm), in the assay with Botrytis cinerea [4] (75 ppm) and in the assay with Botrytis cinerea [4] (300 ppm) was 0% throughout. For the same compound, in the assay with Botrytis cinerea [5], the “Relative Effectiveness against Botrytis cinerea” value is on record as under 0.076. For the same compound, the “TLC percent disease control” value with Phytophthora infestans [6] (19 ppm), in the assay with Phytophthora infestans [6] (75 ppm) and in the assay with Phytophthora infestans [6] (300 ppm) was 0% each time.

On to `CC[C@](C)(NC(=O)c1cc(Cl)c(C)c(Cl)c1)C(=O)CCl` [Compound 1, S enantiomer, (S)-N-(3-chloro-1-ethyl-1-methyl-2-oxopropyl)-3,5-dichloro-4-methylbenzamide], for which the “GDM percent disease control” value was 99% in the assay on Plasmopara viticola [1] (19 ppm), 100% in the assay with Plasmopara viticola [1] (75 ppm) and 100% with Plasmopara viticola [1] (300 ppm). The “GDC percent disease control” value in the assay on Plasmopara viticola [2] (19 ppm) is reported as 75%; with Plasmopara viticola [2] (75 ppm) it was 90%; in the assay with Plasmopara viticola [2] (300 ppm), 99%. The “TLB percent disease control” value in the assay on Phytophthora infestans [3] (19 ppm) worked out at 90%; in the assay with Phytophthora infestans [3] (75 ppm) it was 100%; in the assay on Phytophthora infestans [3] (300 ppm), 100%. Also, in the assay on Pythium ultimum, the “Relative Effectiveness against Pythium ultimum” value turned out to be 2.18. Also, in the assay on Phytophthora capsici, the “Relative Effectiveness against Phytophthora capsici” value is reported as 2.13. The “BOC percent disease control” value in the assay on Botrytis cinerea [4] (19 ppm) was found to be 75%; in the assay on Botrytis cinerea [4] (75 ppm), 90%; in the assay on Botrytis cinerea [4] (300 ppm), 95%. The “Relative Effectiveness against Botrytis cinerea” value in the assay on Botrytis cinerea [5] is listed as 2.03. Also, the figures for the “TLC percent disease control” value in the assay on Phytophthora infestans [6] (19 ppm), in the assay on Phytophthora infestans [6] (75 ppm) and with Phytophthora infestans [6] (300 ppm) were 90%, 99% and 95%, respectively.

With `CCC(C)(NC(=O)c1cc(Cl)c(C)c(Cl)c1)C(=O)CCl` (stereo not drawn) [Compound 1], the “Relative Effectiveness (expected) against Pythium ultimum” value in the assay with Pythium ultimum (50 % S in the Mixture of racemate and S enantiomer) is reported as 1.000; with Pythium ultimum (60 % S in the Mixture of racemate and S enantiomer), 1.236; in the assay with Pythium ultimum (70 % S in the Mixture of racemate and S enantiomer), 1.472; in the assay with Pythium ultimum (80 % S in the Mixture of racemate and S enantiomer) it was 1.708; with Pythium ultimum (90 % S in the Mixture of racemate and S enantiomer), 1.944; with Pythium ultimum (100 % S in the Mixture of racemate and S enantiomer), 2.180.

Regarding `CC[C@@](C)(NC(=O)c1cc(Cl)cc(Cl)c1)C(=O)CCl` [Compound 2, R enantiomer], the “Relative Effectiveness against Pythium ultimum” value in the assay with Pythium ultimum is recorded as 0.055. Also, the “Relative Effectiveness against Botrytis cinerea” value with Botrytis cinerea [5] turned out to be 0.17.

In the case of `CC[C@](C)(NC(=O)c1cc(Cl)cc(Cl)c1)C(=O)CCl` [Compound 2, S enantiomer], in the assay with Pythium ultimum, the “Relative Effectiveness against Pythium ultimum” value is 2.68. For the same compound, the “Relative Effectiveness against Botrytis cinerea” value in the assay with Botrytis cinerea [5] was 1.85.
